Test results published in patent publication US10604514B2, “6-(5-membered heteroaryl)isoquinolin-3-yl carboxamides and preparation and use thereof” (Samumed, LLC, priority 2017, dated 2020).
Where two headings read alike, the source gives them in different places.

What was measured:
[1] = target: GSK3β kinase (Homo sapiens (Human), UniProt P49841); assay: GSK3β kinase assay (Ser/Thr 09 peptide Z-lyte, FRET); type: biochemical; settings: method text calls the value IC50;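 also: Coumarin/fluorescein emission ratio converted to percent phosphorylation against unphosphorylated (0%) and phosphorylated (100%) controls, 1 h compound incubation at room temperature, 11-point threefold dilutions from 10 µM, run in duplicate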
[2] = test system: Tau phosphorylation at Ser396 (pSer396), SH-SY5Y cells; assay: Tau phosphorylation at Ser396 (pSer396) in SH-SY5Y cells, ELISA/western blot; type: cell-based, human; settings: Homo sapiens; SH-SY5Y cells, overnight (16-18 h); read-out: pSer396 Tau EC50;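 also: cell lysates probed for reduced Tau pSer396 via ELISA (colorimetric) or western blot (chemiluminescence), both with one shared pSer396 antibody, EC50 for lowering phosphorylation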
[3] = test system: Wnt activity (Sp5-Luc reporter in SW480 colon carcinoma cells); assay: Wnt activity screening assay (Sp5-Luc reporter gene assay); type: cell-based, human; settings: Homo sapiens; for EC50: Sp5-Luc reporter, SW480 cells, 36 to 48 hours; for inhibition at 10 µM: SW480, read-out: percent inhibition at 10 μM
How it was run: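 SW480 cells stably carrying an Sp5 promoter (eight TCF/LEF sites)-firefly luciferase reporter were plated in DMEM with 1% FBS and treated with a 10-point, 1:3 dilution series from 10 μM (0.1% DMSO) for 36 to 48 h at 37° C. Luminescence was normalized to DMSO controls, and EC50 came from four-parameter nonlinear regression.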

[4] = test system: SW480 colon carcinoma cells; assay: Cell viability assay (CellTiter-Glo) in SW480 cells; type: cell-based, human; settings: Homo sapiens; for EC50: 96 h, cell viability, SW480 cells, four days, CellTiter-Glo; for inhibition at 10 µM: SW480, read-out: percent inhibition at 10 μM;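 as to all read-outs here: SW480 cells stably carrying an Sp5-luciferase TCF/LEF reporter, luminescent ATP signal as viability measure, DMSO-treated cells as control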
[5] = target: DYRK1A kinase (Homo sapiens (Human), UniProt Q13627); assay: DYRK1A kinase assay (Ser/Thr 18 peptide Z-lyte, FRET)
Method: Each compound was dissolved in DMSO as a 10 mM stock and used to prepare compound source plates.
This is a non-radioactive assay using fluorescence resonance energy transfer (FRET) between coumarin and fluorescein to detect kinase activity which is represented as a ratio of coumarin emission/fluorescein emission.
The mixture was allowed to incubate with the representative compounds for one hour at room temperature. All reactions were performed in duplicate. Unphosphorylated (“0% Control”) and phosphorylated (“100% control”) forms of Ser/Thr 18 served as control reactions. Additionally, an 11-point dose-response curve of Staurosporine (1 uM top) was run to serve as a positive compound control.
After incubation, Development Reagent A was diluted in Development Buffer then added to the reaction and allowed to further incubate for one hour at room temperature.
The percent phosphorylation was then calculated using the following formula: [1−((Em ratio×F100%)−C100%)/((C0%−C100%)+(Em ratio×(F100%−F0%)))]. Dose-response curves were generated and inhibitory concentration (IC50) values were calculated using non-linear regression curve fit in the Dotmatics' Studies Software (Bishops Stortford, UK).

[6] = test system: LL29 cells (primary human fibroblasts derived from IPF patients), α-smooth muscle actin; assay: Inhibition of fibrotic process: αSMA in TGF-β1-treated primary human fibroblasts from IPF patients (LL29 cells); type: cell-based; settings: Homo sapiens, Fibroblast; for EC50: 96 h, % αSMA-positive LL29 cells, TGF-β1 20 ng/mL, 4 days
How it was run: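 IPF-patient lung fibroblasts (LL29) were stimulated with TGF-β1 (20 ng/mL) in 1% FBS medium with compound (11-point 1:2 series, 0.1% DMSO) for 4 days at 37 °C. Fixed cells were immunostained for αSMA and imaged, excluding SYTOX-positive dead cells. The % αSMA-positive cells was normalized to TGF-β1/DMSO control wells.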

[7] = test system: IL-6; assay: IL-6 inhibition in LPS-stimulated human peripheral blood mononuclear cells (HTRF); type: cell-based; settings: Homo sapiens, PBMC; for EC50: IL-6, LPS-stimulated huPBMCs, HTRF; for inhibition at 10 µM: read-out: percent value in parentheses below EC50 >10
How it was run: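 Fresh human PBMCs (5000 cells/well, 1% FBS RPMI) preincubated with compound (10-point 1:3 series from 10 μM, 0.25% DMSO) 2 h at 37 °C, then stimulated with 50 ng/mL E. coli LPS for 22 h. IL-6 by HTRF 665/620 ratio; DMSO-normalized, EC50 from 4-parameter fit.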

[8] = DYRK1A kinase, method text calls the value IC50

Sequence of GSK3β kinase (P49841 whole entry): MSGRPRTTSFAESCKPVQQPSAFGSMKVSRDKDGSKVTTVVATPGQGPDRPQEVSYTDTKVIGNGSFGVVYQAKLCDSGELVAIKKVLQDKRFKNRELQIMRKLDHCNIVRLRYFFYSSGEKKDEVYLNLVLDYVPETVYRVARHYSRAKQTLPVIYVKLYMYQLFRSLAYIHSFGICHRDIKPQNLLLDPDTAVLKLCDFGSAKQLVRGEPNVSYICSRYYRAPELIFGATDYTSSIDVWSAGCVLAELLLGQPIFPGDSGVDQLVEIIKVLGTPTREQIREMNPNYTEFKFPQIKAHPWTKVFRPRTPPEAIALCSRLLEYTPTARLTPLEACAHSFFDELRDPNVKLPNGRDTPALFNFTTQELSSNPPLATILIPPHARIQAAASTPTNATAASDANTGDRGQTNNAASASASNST

| SMILES | EC50 [1] [nM] | EC50 [2] [nM] | EC50 [3] [nM] | EC50 [4] [nM] | EC50 [5, 8] [nM] | EC50 [7] [nM] | EC50 [5] [nM] | EC50 [6] [nM] | inhibition at 10 µM [3] [%] | inhibition at 10 µM [7] [%] | inhibition at 10 µM [4] [%] | inhibition at 10 µM ([6]; read-out: percent inhibition at 10 μM) [%] |
| --- | --- | --- | --- | --- | --- | --- | --- | --- | --- | --- | --- | --- |
| Cn1cc(-c2cc(F)c3cnc(NC(=O)[C@H]4CC[C@H](N5CCOCC5)CC4)cc3c2)nn1 [Compound 56, trans-N-(8-Fluoro-6-(1-methyl-1H-1,2,3-triazol-4-yl)isoquinolin-3-yl)-4-morpholinocyclohexane-1-carboxamide] | 9 | 92 | 5350 | 6500 | 4 | 3370 |  | 285 |  |  |  |  |
| Cc1nnc(-c2cc(F)c3cnc(NC(=O)[C@H]4CC[C@H](N5CCOCC5)CC4)cc3c2)s1 [Compound 57, trans-N-(8-Fluoro-6-(5-methyl-1,3,4-thiadiazol-2-yl)isoquinolin-3-yl)-4-morpholinocyclohexane-1-carboxamide] | 16 | 136 | > 10000 | 4110 | 9 | > 10000 |  | 1170 | 40.1 | 6.1 |  |  |
| Cc1cn2c(n1)CN(C(=O)Nc1cc3cc(-c4cnc(C)o4)ccc3cn1)CC2 [Compound 59, 2-Methyl-N-(6-(2-methyloxazol-5-yl)isoquinolin-3-yl)-5,6-dihydroimidazo [1,2-a]pyrazine-7(8H)-carboxamide] | 15 | 35 | 4100 | 140 | 3 | 129 |  | 297 |  |  |  |  |
| Cn1cc(-c2ccc3cnc(NC(=O)N4CCOCC4)cc3c2)nn1 [Compound 60, N-(6-(1-Methyl-1H-1,2,3-triazol-4-yl)isoquinolin-3-yl)morpholine-4-carboxamide] | 73 | 1100 | 671 | 4060 | 7 | > 10000 |  | 4860 |  | 5.7 |  |  |
| CN(C)C1CCN(C(=O)Nc2cc3cc(-c4cnn(C)c4)ccc3cn2)CC1 [Compound 63, 4-(Dimethylamino)-N-(6-(1-methyl-1H-pyrazol-4-yl)isoquinolin-3-yl) piperidine-1-carboxamide] | 473 | 3100 | 657 | 2570 | 17 | 4800 |  | 1280 |  |  |  |  |
| CC(C)N1CCN(C(=O)Nc2cc3cc(-c4cnn(C)c4)ccc3cn2)CC1 [Compound 65, 4-isopropyl-N-(6-(1-methyl-1H-pyrazol-4-yl)isoquinolin-3-yl)piperazine-1-carboxamide] | 2840 | > 10000 | 725 | > 10000 | 70 | > 10000 |  | 2350 |  | 4.8 | 7.3 |  |
| [2H]c1c(NC(=O)C2CCN(C)CC2)ncc2ccc(-c3cnn(C)c3)cc12 [Compound 66, 1-Methyl-N-(6-(1-methyl-1H-pyrazol-4-yl)isoquinolin-3-yl-4-d)piperidine-4-carboxamide] | 53 | 168 | 1190 | 1220 |  | 997 | 3 | 160 |  |  |  |  |
| [2H]c1c(NC(=O)CN2CCOCC2)ncc2ccc(-c3cnn(C)c3)cc12 [Compound 68, N-(6-(1-Methyl-1H-pyrazol-4-yl)isoquinolin-3-yl-4-d)-2-morpholinoacetamide] | 66 | 948 | 6950 | > 10000 |  | 4060 | 7 | 1520 |  |  | 47.2 |  |
| Cc1ncc(-c2ccc3cnc(NC(=O)[C@H]4CC[C@H](CN5CCOCC5)CC4)cc3c2)o1 [Compound 69, trans-N-(6-(2-methyloxazol-5-yl)isoquinolin-3-yl)-4-(morpholinomethyl)cyclohexane-1-carboxamide] | 70 | 516 | 927 | 1700 | 3 | 1020 |  | 210 |  |  |  |  |
| Cc1ncc(-c2ccc3cnc(NC(=O)[C@H]4CC[C@H](CN5CCN(C)CC5)CC4)cc3c2)o1 [Compound 70, trans-N-(6-(2-Methyloxazol-5-yl)isoquinolin-3-yl)-4-((4-methylpiperazin-1-yl)methyl)cyclohexane-1-carboxamide] | 73 | 307 | 1110 | 1720 | 2 | 952 |  | 124 |  |  |  |  |

Further lines, with some results ahead:

| EC50 [1] [nM] | EC50 [2] [nM] | EC50 [3] [nM] | EC50 [4] [nM] | EC50 [5, 8] [nM] | EC50 [7] [nM] | EC50 [5] [nM] | SMILES | EC50 [6] [nM] | inhibition at 10 µM [3] [%] | inhibition at 10 µM [7] [%] | inhibition at 10 µM [4] [%] | inhibition at 10 µM ([6]; read-out: percent inhibition at 10 μM) [%] |
| --- | --- | --- | --- | --- | --- | --- | --- | --- | --- | --- | --- | --- |
| 68 | 1200 | 2640 | 3640 | 7 | > 10000 |  | Cc1nnc(-c2ccc3cnc(NC(=O)N4CCN(C)CC4)cc3c2)s1 [Compound 62, 4-Methyl-N-(6-(5-methyl-1,3,4-thiadiazol-2-yl)isoquinolin-3-yl)piperazine-1-carboxamide] | 1230 |  | 8.5 |  |  |
| 530 | 2900 | 434 | 3530 | 8 | 4630 |  | Cn1cc(-c2ccc3cnc(NC(=O)N4CCOCC4)cc3c2)cn1 [Compound 64, N-(6-(1-Methyl-1H-pyrazol-4-yl)isoquinolin-3-yl)morpholine-4-carboxamide] | 683 |  |  |  |  |
| 14 | 250 | > 10000 | > 10000 | 6 | 9370 |  | Cc1nnc(-c2ccc3cnc(NC(=O)N[C@H]4CCN(C)C[C@@H]4F)cc3c2)s1 [Compound 71, 1-((3S,4S)-3-Fluoro-1-methylpiperidin-4-yl)-3-(6-(5-methyl-1,3,4-thiadiazol-2-yl)isoquinolin-3-yl)urea] | 4660 | 45.6 |  | 46.7 |  |
| > 10000 | 2600 | 3310 | 489 |  | 1580 | 3 | [2H]C1([2H])N(c2cc(C(=O)Nc3cc4cc(-c5cnc(C)n5C)ccc4cn3)ccn2)C([2H])([2H])C([2H])([2H])C([2H])([2H])C1([2H])[2H] [Compound 72, N-(6-(1,2-Dimethyl-1H-imidazol-5-yl)isoquinolin-3-yl)-2-(piperidin-1-yl-d10)isonicotinamide] | 937 |  |  |  |  |
| 2580 | > 10000 | 743 | 1600 |  | 7640 | 3 | [2H]c1c([2H])c([2H])c(C(=O)Nc2cc3cc(-c4cncn4C)ccc3cn2)c(F)c1[2H] [Compound 80] | 2710 |  |  |  |  |
| 1510 | 5900 | > 10000 | 3310 |  | > 10000 | 3 | [2H]c1c([2H])c([2H])c(C(=O)Nc2cc3cc(-c4cncn4C)ccc3cn2)c(Cl)c1[2H] [Compound 82] | > 10000 | 29.6 | 47.6 |  | 31.2 |
| 874 | > 10000 | > 10000 | 305 |  | 1130 | 2 | [2H]c1c([2H])c(C(=O)Nc2cc3cc(-c4cncn4C)ccc3cn2)c([2H])c([2H])c1Cl [Compound 83, 4-Chloro-N-(6-(1-methyl-1H-imidazol-5-yl)isoquinolin-3-yl)benzamide-2,3,5,6-d4] | 483 | 29.7 |  |  |  |
| 1050 | 1400 | > 10000 | 494 |  | 1300 | 2 | [2H]C([2H])([2H])c1ccc(C(=O)Nc2cc3cc(-c4cncn4C)ccc3cn2)cc1 [Compound 84, 4-(Methyl-d3)-N-(6-(1-methyl-1H-imidazol-5-yl)isoquinolin-3-yl)benzamide] | 630 | 25.5 |  |  |  |
| 847 | 1400 | 233 | 487 |  | 1220 | 2 | [2H]c1c([2H])c(C(=O)Nc2cc3cc(-c4cncn4C)ccc3cn2)c([2H])c([2H])c1C [Compound 85, 4-Methyl-N-(6-(1-methyl-1H-imidazol-5-yl)isoquinolin-3-yl)benzamide-2,3,5,6-d4] | 557 |  |  |  |  |
